Data on 4 compounds can be found in publication PMC8900659 (Nature chemical biology, 2021).

For test [1], the system named is wild type N-Ras palmitoylation. Kind of test: MS-based dynamic palmitoylation profiling in NB-4 cells. Format: cell-based, human.
The next test relates to KRAS mutant NB-4 cells. Kind of test: pERK Western blot. As to conditions: 4 h; Palm M 10 μM, ABD957 500 nM, PD901 10 nM. For orientation: A western blot detects proteins with antibodies after separation by electrophoresis.
Another test deals with ABHD17-DKO cells. Put plainly: pERK Western blot. Format: cell-based, human. As to conditions: OCI-AML3 ABHD17-DKO, 4 h.
The subject of test [2] is NRAS mutant OCI-AML3 cells. Put plainly: pERK Western blot. As to conditions: 4 h; Palm M 10 μM, ABD957 500 nM, PD901 10 nM.
In test [3] the test system is dynamically palmitoylated proteins. Kind of test: MS-based global dynamic palmitoylation profiling in OCI-AML3 cells. The settings on record: Palm M 10 μM, ABD957 500 nM, 1 h chase.
Another test has as its system serine hydrolases. Put plainly: in situ MS-ABPP in OCI-AML3 cells, global selectivity. As to conditions: in situ 2 h; ABD957 500 nM, Palm M 10 μM, HDFP 20 μM.
For the next test, the target named is LYPLA1 (Homo sapiens, UniProt O75608). Kind of test: in vitro MS-ABPP, OCI-AML3 proteome. It counts as biochemical. The settings on record: 1 and 10 μM, 30 min, particulate fraction.
Sequence of LYPLA1 (O75608 whole entry): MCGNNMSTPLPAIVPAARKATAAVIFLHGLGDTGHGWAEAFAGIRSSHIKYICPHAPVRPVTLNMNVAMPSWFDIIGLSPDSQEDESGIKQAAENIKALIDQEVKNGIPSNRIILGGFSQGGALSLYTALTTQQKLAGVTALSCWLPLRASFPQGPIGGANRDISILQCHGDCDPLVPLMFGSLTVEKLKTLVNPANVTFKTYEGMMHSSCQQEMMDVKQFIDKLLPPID
Another test concerns the target LYPLA2 (Homo sapiens, UniProt O95372). Kind of test: in vitro MS-ABPP, OCI-AML3 proteome. As to conditions: 1 and 10 μM, 30 min, particulate fraction. It counts as biochemical.
The next test deals with ABHD17s. Kind of test: in vitro MS-ABPP, OCI-AML3 proteome. It counts as biochemical, human. The settings on record: 1 and 10 μM, 30 min, particulate fraction.
A further test deals with ABHD17A/B/C. Kind of test: targeted MS-ABPP in situ time-course in ONK cells. Format: cell-based, human. The settings on record: 1 μM.
In the next test the target is T1, ABHD10 (Homo sapiens, UniProt Q9NUJ1).
T1 sequence (Q9NUJ1 53-306): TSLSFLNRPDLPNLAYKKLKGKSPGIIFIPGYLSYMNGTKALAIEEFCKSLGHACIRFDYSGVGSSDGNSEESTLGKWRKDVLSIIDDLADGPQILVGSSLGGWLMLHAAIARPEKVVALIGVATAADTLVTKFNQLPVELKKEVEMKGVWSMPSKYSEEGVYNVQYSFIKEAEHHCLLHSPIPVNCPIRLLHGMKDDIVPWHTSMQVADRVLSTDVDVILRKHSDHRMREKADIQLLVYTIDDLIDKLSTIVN
Kind of test: in vitro MS-ABPP, OCI-AML3 proteome. Format: biochemical. As to conditions: 1 and 10 μM, 30 min, particulate fraction.

Sequence of LYPLA2 (O95372 whole entry): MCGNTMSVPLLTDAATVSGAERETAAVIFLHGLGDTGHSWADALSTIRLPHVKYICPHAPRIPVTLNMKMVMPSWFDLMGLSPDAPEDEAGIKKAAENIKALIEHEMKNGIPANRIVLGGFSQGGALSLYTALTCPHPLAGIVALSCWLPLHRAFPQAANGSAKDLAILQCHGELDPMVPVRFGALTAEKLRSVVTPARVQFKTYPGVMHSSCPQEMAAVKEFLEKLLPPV

On to `CCCCCCCCCC[C@@H]1C(=O)O[C@H]1CCCCS(=O)(=O)CCCN(C)C` [Palm M, Palmostatin M], for which the “sensitivity of dynamic palmitoylation of wild type N-Ras” value in test [1] was “fully preserved”. Also, the ERK phosphorylation entry in the test on KRAS mutant NB-4 cells is on record as “but not in KRAS mutant NB-4 cells”; with ABHD17-DKO cells, “maintained similar activity”; in test [2], “substantially blocked”. In addition, in test [3], the “stabilization of the 22 dynamically palmitoylated proteins” value is “most of these proteins were stabilized”. For the same compound, the “global serine hydrolase selectivity in cells” value in the test on serine hydrolases was “widespread serine hydrolase inhibition”.
For the compound `CN(C)S(=O)(=O)c1cnn(C(=O)N2CCN(Cc3ccc(Cl)cc3)CC2)c1` [compound 5], the “inhibition of LYPLA1” value at LYPLA1 is on record as “inhibition”. At LYPLA2, the “inhibition of LYPLA2” value is given as “inhibition”. Also, in the test with ABHD17s, the “inhibition of ABHD17s” value is on record as “confirmed inhibition”.
With `C[C@H]1CN(Cc2ccc(C(F)(F)F)cc2N2CCOCC2)CCN1C(=O)n1ccc(S(=O)(=O)N(C)C)n1` [compound 8], the “sustained inhibition of ABHD17A/B/C over 72 h” value in the test on ABHD17A/B/C is on record as “did not produce sustained inhibition”. Moreover, at ABHD10, the ABHD10 as off-target entry was “introducing ABHD10”.
On to `O=C(NOC[C@H](O)CO)c1ccc(F)c(F)c1Nc1ccc(I)cc1F` [PD901], for which the ERK phosphorylation entry (in the test with KRAS mutant NB-4 cells; in [2]) was “blocked ERK phosphorylation in both cell lines” throughout.
